# Data published in patent publication US6037447A, “Glycopeptide compounds” (priority 1998, dated 2000).
# What was measured:
# [1] = test system: Staphylococcus aureus SA1199; test: Standard broth micro-dilution MIC, Staphylococcus aureus SA1199; assay type: cell-based
# Protocol: (§1) The minimal inhibitory concentrations (MICs) were determined using a standard broth micro-dilution assay.
# [2] = test system: Staphylococcus aureus S13E; assay type: cell-based
# Protocol: as §1
# [3] = test system: vancomycin-sensitive enterococci; test: In Vitro Activity Against Enterococci, vancomycin-sensitive strains; assay type: cell-based, Enterococcus faecium and Enterococcus faecalis; conditions: representative vancomycin-sensitive enterococci (Enterococcus faecium and Enterococcus faecalis)
# Protocol: as §1
# [4] = test system: Staphylococcus aureus 447; test: Standard broth micro-dilution MIC, Staphylococcus aureus 447; assay type: cell-based
# Protocol: as §1
# [5] = test system: Streptococcus pneumoniae P1; test: Standard broth micro-dilution MIC, Streptococcus pneumoniae P1; assay type: cell-based
# Protocol: as §1
# [6] = test system: Enterococcus gallinarum 245; test: Standard broth micro-dilution MIC, Enterococcus gallinarum 245; assay type: cell-based
# Protocol: as §1
# [7] = test system: Enterococcus faecium 180-1; test: Standard broth micro-dilution MIC, Enterococcus faecium 180-1; assay type: cell-based
# Protocol: as §1
# Enterococcus faecium 180 = test: Standard broth micro-dilution MIC, Enterococcus faecium 180; assay type: cell-based
# Protocol: as §1
# [8] = test system: vancomycin-resistant enterococci; test: In Vitro Activity Against Enterococci, vancomycin-resistant strains; assay type: cell-based; conditions: representative vancomycin-resistant enterococci (Enterococcus faecium and Enterococcus faecalis)
# Protocol: as §1
# [9] = test system: Staphylococcus aureus X400; test: Standard broth micro-dilution MIC, Staphylococcus aureus X400; assay type: cell-based
# Protocol: as §1
# [10] = test system: Streptococcus pyogenes C203; test: Standard broth micro-dilution MIC, Streptococcus pyogenes C203; assay type: cell-based
# Protocol: as §1
# [11] = test system: Haemophilus influenzae RD; test: Standard broth micro-dilution MIC, Haemophilus influenzae RD; assay type: cell-based
# Protocol: as §1
# [12] = test system: Staphylococcus haemolyticus 105; test: Standard broth micro-dilution MIC, Staphylococcus haemolyticus 105; assay type: cell-based
# Protocol: as §1
# [13] = test system: Staphylococcus aureus 489; test: Standard broth micro-dilution MIC, Staphylococcus aureus 489; assay type: cell-based
# Protocol: as §1
# [14] = test system: Staphylococcus aureus 446; test: Standard broth micro-dilution MIC, Staphylococcus aureus 446; assay type: cell-based
# Protocol: as §1
# Escherichia coli EC14 = test: Standard broth micro-dilution MIC, Escherichia coli EC14; assay type: cell-based
# Protocol: as §1
# [15] = test system: Enterococcus faecalis 276; test: Standard broth micro-dilution MIC, Enterococcus faecalis 276; assay type: cell-based
# Protocol: as §1
# [16] = test system: Staphylococcus epidermidis 270; test: Standard broth micro-dilution MIC, Staphylococcus epidermidis 270; assay type: cell-based
# Protocol: as §1
# [17] = test system: Staphylococcus aureus X778; test: Standard broth micro-dilution MIC, Staphylococcus aureus X778; assay type: cell-based
# Protocol: as §1
# [18] = test system: Staphylococcus haemolyticus 415; test: Standard broth micro-dilution MIC, Staphylococcus haemolyticus 415; assay type: cell-based
# Protocol: as §1
# [19] = test system: Enterococcus faecalis 2041; test: Standard broth micro-dilution MIC, Enterococcus faecalis 2041; assay type: cell-based
# Protocol: as §1
# [20] = test system: Staphylococcus aureus SA1199A; test: Standard broth micro-dilution MIC, Staphylococcus aureus SA1199A; assay type: cell-based
# Protocol: as §1
# [21] = test system: Staphylococcus aureus SA119913; test: Standard broth micro-dilution MIC, Staphylococcus aureus SA119913; assay type: cell-based
# Protocol: as §1
# [22] = test system: Staphylococcus aureus 491; test: Standard broth micro-dilution MIC, Staphylococcus aureus 491; assay type: cell-based
# Protocol: as §1
Substance,MIC [1],MIC [2],"mean geometric MIC, Vancomycin Sensitive Strains [3]",MIC [4],MIC [5],MIC [6],MIC [7],MIC (Enterococcus faecium 180),"mean geometric MIC, Vancomycin Resistant Strains [8]",MIC [9],MIC [10],MIC [11],MIC [12],MIC [13],MIC [14],MIC (Escherichia coli EC14),MIC [15],MIC [16],MIC [17],MIC [18],also measured
"1,3-propanediyl-bis-[(oxy-4,1-phenylene)-methylene]-bis-[A82846B] [Compound 14]",4 µg/mL,2 µg/mL,1.0 µg/mL,16 µg/mL,0.06 µg/mL,0.06 µg/mL,≤ 0.06 µg/mL,0.25 µg/mL,> 64 µg/mL,2 µg/mL,0.06 µg/mL,> 64 µg/mL,4 µg/mL,1 µg/mL,4 µg/mL,> 64 µg/mL,0.5 µg/mL,8 µg/mL,1 µg/mL,16 µg/mL,MIC [19]: 0.25 µg/mL; MIC [20]: 0.125 µg/mL; MIC [21]: 2 µg/mL; MIC [22]: 0.25 µg/mL
N^4 -(4-(2-(2-(2-(p-formyl-phenoxy)ethoxy)ethoxy)ethoxy)benzyl)A82846B [Compound 43],2 µg/mL,2 µg/mL,4.6 µg/mL,4 µg/mL,0.06 µg/mL,0.5 µg/mL,0.5 µg/mL,8 µg/mL,> 128 µg/mL,2 µg/mL,0.06 µg/mL,> 64 µg/mL,1 µg/mL,1 µg/mL,2 µg/mL,> 64 µg/mL,1 µg/mL,4 µg/mL,2 µg/mL,8 µg/mL,MIC [19]: 1 µg/mL; MIC [20]: 0.5 µg/mL; MIC [21]: 4 µg/mL; MIC [22]: 0.5 µg/mL
N^4 -(4-(2-(4-(2-(p-formyl-phenoxy)ethoxycarbonyl)benzoyl-oxy)ethoxy)benzyl)vancomycin [Compound 44],≤ 0.06 µg/mL,≤ 0.06 µg/mL,0.66 µg/mL,0.125 µg/mL,0.06 µg/mL,0.25 µg/mL,≤ 0.06 µg/mL,4 µg/mL,76 µg/mL,≤ 0.06 µg/mL,0.06 µg/mL,> 64 µg/mL,0.25 µg/mL,0.125 µg/mL,0.125 µg/mL,> 64 µg/mL,≤ 0.06 µg/mL,0.25 µg/mL,≤ 0.06 µg/mL,2 µg/mL,MIC [19]: ≤ 0.06 µg/mL; MIC [20]: ≤ 0.06 µg/mL; MIC [21]: ≤ 0.06 µg/mL; MIC [22]: ≤ 0.06 µg/mL
N^4 -(4-(8-(p-formylphenoxy)-n-octyloxy)benzyl)A82846B [Compound 47],16 µg/mL,16 µg/mL,1.0 µg/mL,8 µg/mL,≤ 0.06 µg/mL,16 µg/mL,1 µg/mL,0.5 µg/mL,2.8 µg/mL,8 µg/mL,≤ 0.06 µg/mL,> 64 µg/mL,8 µg/mL,4 µg/mL,8 µg/mL,> 64 µg/mL,8 µg/mL,4 µg/mL,8 µg/mL,16 µg/mL,MIC [19]: 2 µg/mL; MIC [20]: 0.5 µg/mL; MIC [21]: 8 µg/mL; MIC [22]: 16 µg/mL
N^4 -(4-(12-(p-formylphenoxy)-n-dodecyloxy)benzyl)A82846B [Compound 48],32 µg/mL,32 µg/mL,5.2 µg/mL,> 64 µg/mL,4 µg/mL,> 64 µg/mL,8 µg/mL,64 µg/mL,8.0 µg/mL,32 µg/mL,2 µg/mL,> 64 µg/mL,> 64 µg/mL,32 µg/mL,> 64 µg/mL,> 64 µg/mL,32 µg/mL,> 64 µg/mL,32 µg/mL,> 64 µg/mL,MIC [19]: 8 µg/mL; MIC [20]: 16 µg/mL; MIC [21]: 32 µg/mL; MIC [22]: 32 µg/mL
